Source: US8716325B2, “Treatment of cachexia” (PsiOxus Therapeutics Limited, priority 2006, dated 2014)
Read-outs that look alike come from different tables or passages of the source.

Tests used:
[1] = cited from earlier work
5-HT1a = target: T1, 5-HT1a (Rattus norvegicus, UniProt P19327); details: functional tests, Eur J Pharmacol. 1986; 128 (3): 295-8; cited from earlier work
T1 construct: suppressant effects of 5-HT1a agonists on dorsal raphe neuronal firing; host or cells: dorsal raphe neurons (endogenous receptor)
T1 sequence (P19327 1-422): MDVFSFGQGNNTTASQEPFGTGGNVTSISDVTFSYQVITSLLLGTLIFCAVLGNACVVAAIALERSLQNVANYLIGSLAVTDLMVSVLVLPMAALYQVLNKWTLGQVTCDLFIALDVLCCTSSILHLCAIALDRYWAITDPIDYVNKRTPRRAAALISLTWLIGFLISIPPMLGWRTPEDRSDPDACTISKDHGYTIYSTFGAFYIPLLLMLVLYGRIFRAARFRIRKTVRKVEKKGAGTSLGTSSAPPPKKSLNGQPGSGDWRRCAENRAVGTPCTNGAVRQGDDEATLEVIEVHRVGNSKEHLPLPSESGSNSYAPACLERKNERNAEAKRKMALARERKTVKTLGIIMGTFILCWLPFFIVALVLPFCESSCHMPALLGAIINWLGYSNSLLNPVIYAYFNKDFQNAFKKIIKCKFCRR

[2] = test system: Ascites hepatoma Yoshida AH-130 cells; test: Yoshida AH-130 ascites hepatoma rat model of cancer cachexia; type: in vivo, male Wistar rats; details: for Locomotor activity 24 h day 11: Supermex system, marker for fatigue; for Locomotor activity 24 h day 11 / Food intake day 11 / Lean tissue gain without tumour / Lean tissue without tumour / Weight gain without tumour / Body weight without tumour: mean±SEM; for Lean tissue gain without tumour / Lean tissue without tumour / Weight gain without tumour / Body weight without tumour: end of study; for Body weight without tumour: oral gavage, twice daily
Source text: Ascites hepatoma Yoshida AH-130 cells (10^8 cells) are inoculated into 180-200 g male Wistar rats. Alternatively animals receive saline injection only (sham). The animals are housed in groups of three. The day after inoculation animals are randomized into various groups and then receive twice daily treatment with either placebo or compounds over a period of up to 17 days. The primary endpoints of the study include assessment of body weight, body composition (with and without tumour) and survival. Organ weight is assessed at the end of the study (or after death) as a secondary endpoint. In addition locomotor activity is used to assess fatigue using Supermex system (Muromachi, Tokyo, Japan) over a period of 24 hours in cages where the animals are placed individually (type 3 cage); missing data (if due to death) are imputed as ‘zero’ activity; a sensitivity analysis without imputed points is additionally performed. Food intake is also measured. Results are expressed as mean±SEM at the end of the study except where stated otherwise. Doses represent total daily dose given by oral gavage.

[3] = animal model of cancer cachexia, summary in words

CC(C)NCC(O)COc1cccc2[nH]ccc12 (racemic) [racemic pindolol, pindolol, reference compound]
Effect on blood pressure ([1]; healthy subjects, similar dose of (S)-pindolol and racemic pindolol): reducing diastolic blood pressure

CC(C)NC[C@@H](O)COc1cccc2ccccc12 [(R)-propranolol, reference compound]
Block of the suppressant effects of 5-HT1a agonists on dorsal raphe neuronal firing (5-HT1a): not

CC(C)NC[C@H](O)COc1cccc2ccccc12 [(S)-propranolol, (S)-1-isopropylamino-3-(1-naphthyloxy)-2-propanol]
Block of the suppressant effects of 5-HT1a agonists on dorsal raphe neuronal firing (5-HT1a): blocked the suppressant effects

CC(C)NCC(O)COc1ccc(COCCOC(C)C)cc1 (centres unmarked) [Bisoprolol, reference compound]
Locomotor activity 24 h day 11 ([2]; 5 mg/kg/d oral gavage): 315 ± 58 | Food intake day 11 ([2]; 5 mg/kg/d oral gavage): 16.00 ± 3.07 g | Lean tissue gain without tumour ([2]; 5 mg/kg/d oral gavage): -1.38 ± 11.31 g | Lean tissue without tumour ([2]; 5 mg/kg/d oral gavage): 158.10 ± 11.86 g | Weight gain without tumour ([2]; 5 mg/kg/d oral gavage): -5.46 ± 15.95 g | Body weight without tumour ([2]; 5 mg/kg/d total daily dose): 202.0 ± 16.04 g | Locomotor activity 24 h day 11 ([2]; 50 mg/kg/d oral gavage): 277 ± 39 | Food intake day 11 ([2]; 50 mg/kg/d oral gavage): 9.94 ± 2.10 g | Lean tissue gain without tumour ([2]; 50 mg/kg/d oral gavage): -28.96 ± 6.64 g | Lean tissue without tumour ([2]; 50 mg/kg/d oral gavage): 124.77 ± 7.17 g | Weight gain without tumour ([2]; 50 mg/kg/d oral gavage): -30.30 ± 10.95 g | Body weight without tumour ([2]; 50 mg/kg/d total daily dose): 159.18 ± 9.64 g | Effect on locomotor activity, as a marker for fatigue [2, 3]: neutral to negative

CC(C)NC[C@H](O)COc1cccc2[nH]ccc12 [S-pindolol, S-(−)-1-(1H-indol-4-yloxy)-3-(1-methylethylamino)propan-2-ol]
Effect on blood pressure ([1]; in vivo): no alteration in blood pressure in a majority of healthy subjects | Locomotor activity 24 h day 11 ([2]; 0.3 mg/kg/d oral gavage): 361 ± 38 | Food intake day 11 ([2]; 0.3 mg/kg/d oral gavage): 7.75 ± 5.22 g | Lean tissue gain without tumour ([2]; 0.3 mg/kg/d oral gavage): -1.17 ± 15.84 g | Lean tissue without tumour ([2]; 0.3 mg/kg/d oral gavage): 152.37 ± 15.47 g | Weight gain without tumour ([2]; 0.3 mg/kg/d oral gavage): -8.50 ± 19.19 g | Body weight without tumour ([2]; 0.3 mg/kg/d total daily dose): 178.89 ± 17.04 g | Locomotor activity 24 h day 11 ([2]; 3 mg/kg/d oral gavage): 368 ± 50 | Food intake day 11 ([2]; 3 mg/kg/d oral gavage): 15.33 ± 3.84 g | Lean tissue gain without tumour ([2]; 3 mg/kg/d oral gavage): 18.90 ± 16.06 g | Lean tissue without tumour ([2]; 3 mg/kg/d oral gavage): 171.99 ± 15.92 g | Weight gain without tumour ([2]; 3 mg/kg/d oral gavage): 17.30 ± 20.08 g | Body weight without tumour ([2]; 3 mg/kg/d total daily dose): 215.10 ± 19.89 g | Effect on cachectic weight loss [2, 3]: able to reduce cachectic weight loss | Effect on locomotor activity, as a marker for fatigue [2, 3]: positive effect on locomotor activity | Effect on tumour weight [2, 3]: reducing the tumour weight
